Where a name gives a salt, the structure may show the parent alone.
Biological target: T1, STAT5b (Homo sapiens, UniProt P51692)
T1 sequence (P51692 1-787): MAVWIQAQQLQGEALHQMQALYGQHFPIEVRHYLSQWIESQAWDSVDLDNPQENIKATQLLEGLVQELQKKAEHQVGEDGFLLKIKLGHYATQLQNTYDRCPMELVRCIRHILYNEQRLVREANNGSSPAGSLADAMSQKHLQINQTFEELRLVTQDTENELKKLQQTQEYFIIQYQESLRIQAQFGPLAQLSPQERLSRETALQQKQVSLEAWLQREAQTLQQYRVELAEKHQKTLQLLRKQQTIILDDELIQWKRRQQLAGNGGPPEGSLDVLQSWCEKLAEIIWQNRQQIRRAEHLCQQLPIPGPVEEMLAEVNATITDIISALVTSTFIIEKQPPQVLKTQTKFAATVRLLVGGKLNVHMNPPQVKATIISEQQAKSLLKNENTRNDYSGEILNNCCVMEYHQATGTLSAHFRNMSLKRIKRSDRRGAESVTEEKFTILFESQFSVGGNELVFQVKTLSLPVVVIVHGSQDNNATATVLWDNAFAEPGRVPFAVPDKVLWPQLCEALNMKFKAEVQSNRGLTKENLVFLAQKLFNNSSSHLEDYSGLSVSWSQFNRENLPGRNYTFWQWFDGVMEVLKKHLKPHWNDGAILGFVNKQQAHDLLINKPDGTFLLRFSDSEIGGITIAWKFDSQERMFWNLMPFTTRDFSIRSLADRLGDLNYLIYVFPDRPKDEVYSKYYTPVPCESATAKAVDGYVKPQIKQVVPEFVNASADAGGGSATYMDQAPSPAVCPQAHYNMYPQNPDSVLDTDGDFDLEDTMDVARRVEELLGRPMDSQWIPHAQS
Assay type: binding

Ki: 1000 to 3000 nM
SMILES: CC[C@@]1(O)C(=O)OCc2c1cc1n(c2=O)Cc2cc3c(CN(C)C)c(O)ccc3nc2-1 [compound 108, topotecan hydrochloride]
